One data set addresses T1, human H3 receptor (Homo sapiens, UniProt Q9Y5N1).
T1 construct: expressed in transfected cells
Nature of the data set: Human H3 radioligand binding ([3H]-N-alpha-methylhistamine, SPA). The note with it: human H3 binding, Table D; read-out: Human H3 Ki. In outline: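 Compounds (0.01 nM-30 μM) competed with approximately 1 nM [3H]-N-alpha-methylhistamine for human H3 receptor in membranes of stably transfected CHO cells, 10 μg protein per well, in Tris-HCl pH 7.4/MgCl2/BSA buffer for 4 h at room temperature. Bound radioligand measured by scintillation proximity; 10 μM clobenpropit gave non-specific binding.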

The target of data set [1] is T2, rat histamine H3 receptor (Rattus norvegicus, UniProt Q9QYN8).
T2 construct: encoding the entire 445-amino-acid rat histamine H3 receptor; expressed in transfected cells; membrane preparation
Nature of the data set: Rat H3 radioligand binding ([3H]-N-alpha-methylhistamine, SPA). As to conditions: rat H3 binding, Table D; read-out: Rat H3 Ki. In outline: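 SPA-bead binding assay using [3H]-N-alpha-methylhistamine (approximately 1 nM final) with test compounds from 0.01 nM to 30 μM. Rat H3 receptor membranes came from stably transfected CHO-A3 cells; incubation ran 4 h at room temperature, in the dark, in Tris pH 7.4 buffer with MgCl2 and BSA. Clobenpropit (10 μM) gave non-specific binding.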

One may read the pKi as −log10 of the Ki, conventionally taken in molar units. As usually defined, the melting point is the temperature, or range, at which the solid turns liquid.

pKi: −log10 of the molar value.

T2 sequence (Q9QYN8 whole entry): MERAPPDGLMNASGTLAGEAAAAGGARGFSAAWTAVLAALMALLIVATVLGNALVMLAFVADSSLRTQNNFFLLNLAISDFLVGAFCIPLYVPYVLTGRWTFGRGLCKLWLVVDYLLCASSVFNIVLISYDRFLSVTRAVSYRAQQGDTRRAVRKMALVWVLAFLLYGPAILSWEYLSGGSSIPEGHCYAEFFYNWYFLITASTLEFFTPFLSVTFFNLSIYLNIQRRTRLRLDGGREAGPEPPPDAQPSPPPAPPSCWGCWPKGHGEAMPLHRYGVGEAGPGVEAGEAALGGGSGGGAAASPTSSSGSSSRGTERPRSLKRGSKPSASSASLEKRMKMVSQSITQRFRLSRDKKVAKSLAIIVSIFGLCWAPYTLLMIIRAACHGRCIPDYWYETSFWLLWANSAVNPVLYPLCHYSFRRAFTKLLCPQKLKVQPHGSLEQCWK
T1 sequence (Q9Y5N1 whole entry): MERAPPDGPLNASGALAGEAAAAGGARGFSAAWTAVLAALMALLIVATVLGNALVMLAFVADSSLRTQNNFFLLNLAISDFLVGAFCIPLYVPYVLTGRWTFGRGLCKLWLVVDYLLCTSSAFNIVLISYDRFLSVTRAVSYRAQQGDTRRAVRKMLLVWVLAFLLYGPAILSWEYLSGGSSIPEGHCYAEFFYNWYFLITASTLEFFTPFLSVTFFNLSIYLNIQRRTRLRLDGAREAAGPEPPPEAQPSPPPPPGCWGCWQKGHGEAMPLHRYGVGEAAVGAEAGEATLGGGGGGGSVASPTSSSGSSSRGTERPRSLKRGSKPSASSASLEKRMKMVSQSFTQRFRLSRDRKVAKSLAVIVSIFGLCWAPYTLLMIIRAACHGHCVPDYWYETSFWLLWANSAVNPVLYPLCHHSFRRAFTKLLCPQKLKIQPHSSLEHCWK

For the compound `COc1ncc(-c2ccc3c(c2)COC2(CCN(C4CCC4)CC2)O3)c(OC)n1` [Example 662], the melting point was 250 °C (dec.). The pKi on human H3 receptor is over 6.70. The pKi in data set [1] was over 6.70.
The compound `O=c1cc(COc2ccc3c(c2)CCC2(CCN(C4CCC4)CC2)O3)cc[nH]1` [Example 663] yielded a melting point of 205 to 206 °C. Moreover, the pKi at human H3 receptor was over 6.70. Moreover, in data set [1], the pKi is over 6.70.
The compound `OC(c1ccc2c(c1)COC1(CCN(C3CCC3)CC1)O2)c1nccs1` (stereo not drawn) [Example 664] yielded a melting point of 70 to 72 °C. Further, the pKi at human H3 receptor is over 6.70. Moreover, the pKi in data set [1] is over 6.70.
As to `Cc1cc(C2CCN(c3ccc4c(c3)COC3(CCN(C5CCC5)CC3)O4)CC2)on1` [Example 665], the melting point is 135.9 to 137.2 °C. For the same compound, the pKi on human H3 receptor is over 6.70. Moreover, the pKi in data set [1] was over 6.70.
As to `O=c1[nH]ccc(-c2ccc3c(c2)COC2(CCN(C4CCC4)CC2)O3)c1Cl` [Example 666], the melting point was 230 to 232 °C. Further, the pKi on human H3 receptor is over 6.70. Besides, in data set [1], the pKi was over 6.70.
As to `O=c1cc(-c2ccc3c(c2)COC2(CCN(C4CCC4)CC2)O3)c(Cl)c[nH]1` [Example 667], the melting point was 130 to 132 °C. Besides, the pKi on human H3 receptor is over 6.70. For the same compound, the pKi in data set [1] is over 6.70.
The compound `O=C(O)c1ccc(-c2ccc3c(c2)COC2(CCN(C4CCC4)CC2)O3)cc1` [Example 668] yielded a melting point of 236 to 237 °C. The negative logarithm of the Ki (pKi) at human H3 receptor was over 6.70. Also, the pKi in data set [1] is over 6.70.
`OC(c1ccc2c(c1)COC1(CCN(C3CCC3)CC1)O2)c1cncs1` (stereo not drawn) [Example 669] returned a melting point of 72 to 75 °C. Further, the pKi at human H3 receptor is over 6.70. Moreover, the pKi in data set [1] is over 6.70.
Consider `CN(C)C(=O)c1cccc(COc2ccc3c(c2)CCC2(CCN(C4CCC4)CC2)O3)n1` [Example 670], for which the melting point was 167 to 170 °C. Moreover, the negative-log Ki (pKi) at human H3 receptor is over 6.70. In addition, the pKi in data set [1] is over 6.70.
As to `c1cc2c(cc1OCc1nnc(C3CC3)o1)CCC1(CCN(C3CCC3)CC1)O2` [Example 671], the melting point fell in the range of 158 to 159 °C. In addition, on human H3 receptor, the pKi is over 6.70. In addition, the pKi in data set [1] is over 6.70.
On to `COCc1noc(COc2ccc3c(c2)CCC2(CCN(C4CCC4)CC2)O3)n1` [Example 672], for which the melting point was 178 to 179 °C. The pKi at human H3 receptor is over 6.70. Also, in data set [1], the pKi was over 6.70.
`Cc1nnc(CCc2ccc3c(c2)COC2(CCN(C4CCC4)CC2)O3)o1` [Example 673] returned a melting point of 87 to 89 °C. Further, at human H3 receptor, the pKi is over 6.70. Also, in data set [1], the pKi is over 6.70.
In turn, `CN(C)C(=O)c1ccc(COc2ccc3c(c2)CCC2(CCN(C4CCC4)CC2)O3)nc1` [Example 674] gave a melting point of 75 to 78 °C. Also, the pKi on human H3 receptor was over 6.70. Besides, in data set [1], the pKi was over 6.70.
For the compound `c1nnc(CCc2ccc3c(c2)COC2(CCN(C4CCC4)CC2)O3)o1` [Example 675], the melting point was in the range of 83 to 85 °C. In addition, the pKi at human H3 receptor is over 6.70. Besides, the pKi in data set [1] was over 6.70.
Compound `Cc1noc(CCc2ccc3c(c2)COC2(CCN(C4CCC4)CC2)O3)n1` [Example 676] registered a melting point of 74 to 76 °C. Also, at human H3 receptor, the pKi was over 6.70. Besides, in data set [1], the pKi is over 6.70.
`C/C=C(\CC)c1ccc2c(c1)COC1(CCN(C3CCC3)CC1)O2` [Example 677] gave a melting point of 223.5 to 225.8 °C. Besides, the pKi on human H3 receptor is over 6.70. In data set [1], the pKi is over 6.70.
The compound `CCc1nnc(COc2ccc3c(c2)CCC2(CCN(C4CCC4)CC2)O3)o1` [Example 678] registered a melting point of 170 to 172 °C. In addition, on human H3 receptor, the pKi was over 6.70. The pKi in data set [1] was over 6.70.
Take `NC(=O)c1ccc(-c2ccc3c(c2)COC2(CCN(C4CCC4)CC2)O3)s1` [Example 679]: the melting point was 250 °C (dec.). Also, the pKi on human H3 receptor is over 6.70. Also, the pKi in data set [1] is over 6.70.
Take `Cn1cc(-c2ccc3c(c2)COC2(CCN(C4CCC4)CC2)O3)cnc1=O` [Example 680]: the melting point was in the range of 230 to 231 °C. Moreover, on human H3 receptor, the pKi is over 6.70. For the same compound, the pKi in data set [1] is over 6.70.
As for `CNC(=O)c1ccc(-c2ccc3c(c2)COC2(CCN(C4CCC4)CC2)O3)c(C)c1` [Example 681], the melting point is 210 to 211 °C. Moreover, the pKi on human H3 receptor was over 6.70. Further, the pKi in data set [1] is over 6.70.
Consider `CNC(=O)c1ccc(-c2ccc3c(c2)COC2(CCN(C4CCC4)CC2)O3)c(OC)c1` [Example 682], for which the melting point was 87 to 90 °C. Also, the pKi at human H3 receptor is over 6.70. Moreover, the pKi in data set [1] is over 6.70.
Compound `OC(c1ccncc1)c1ccc2c(c1)COC1(CCN(C3CCC3)CC1)O2` (stereo not drawn) [Example 683] had a melting point of 69 to 72 °C. For the same compound, the pKi at human H3 receptor was over 6.70. For the same compound, the pKi in data set [1] was over 6.70.
`CNC(=O)c1ccc(-c2ccc3c(c2)COC2(CCN(C4CCC4)CC2)O3)c(Cl)c1` [Example 685]: the melting point lay within 211 to 213 °C. On human H3 receptor, the pKi is over 6.70. Moreover, in data set [1], the pKi is over 6.70.
`O=C(NC1CCOCC1)c1ccc(-c2ccc3c(c2)COC2(CCN(C4CCC4)CC2)O3)c(Cl)c1` [Example 686] came in with a melting point of 170 to 173 °C. For the same compound, the pKi on human H3 receptor was over 6.70. The pKi in data set [1] is over 6.70.
With `Cc1cc(C(=O)NC2CCOCC2)ccc1-c1ccc2c(c1)COC1(CCN(C3CCC3)CC1)O2` [Example 687], the melting point lay in the range of 184 to 185 °C. Further, at human H3 receptor, the pKi is over 6.70. Further, the pKi in data set [1] is over 6.70.
For the compound `COc1cc(C(=O)NC2CCOCC2)ccc1-c1ccc2c(c1)COC1(CCN(C3CCC3)CC1)O2` [Example 688], the melting point lay in the range of 100 to 102 °C. Further, the pKi on human H3 receptor is over 6.70. Also, the pKi in data set [1] was over 6.70.
In the case of `Cc1nnc(C2CC=C(c3ccc4c(c3)COC3(CCN(C5CCC5)CC3)O4)CC2)o1` (stereo not drawn) [Example 689], the melting point was in the range of 76.4 to 78.4 °C. Also, on human H3 receptor, the pKi was over 6.70. For the same compound, the pKi in data set [1] was over 6.70.
Consider `CC1CN=C(CCc2ccc3c(c2)COC2(CCN(C4CCC4)CC2)O3)O1` (stereo not drawn) [Example 691], for which the melting point lay within 61 to 63 °C. Also, on human H3 receptor, the pKi was over 6.70. Also, the pKi in data set [1] was over 6.70.
Take `OC(c1cncnc1)c1ccc2c(c1)COC1(CCN(C3CCC3)CC1)O2` (stereo not drawn) [Example 692]: the melting point lay in the range of 57 to 60 °C. Also, the pKi at human H3 receptor was over 6.70. Further, the pKi in data set [1] is over 6.70.
As to `Cc1cc(C(N)=O)ccc1-c1ccc2c(c1)COC1(CCN(C3CCC3)CC1)O2` [Example 693], the melting point lay in the range of 180 to 182 °C. For the same compound, on human H3 receptor, the negative logarithm of the Ki (pKi) is over 6.70. The pKi in data set [1] was over 6.70.
In turn, `CCc1nnc(CCc2ccc3c(c2)COC2(CCN(C4CCC4)CC2)O3)o1` [Example 694] had a melting point of 98 to 100 °C. Moreover, the pKi on human H3 receptor is over 6.70. The pKi in data set [1] was over 6.70.
Consider `CC(C)c1nnc(CCc2ccc3c(c2)COC2(CCN(C4CCC4)CC2)O3)o1` [Example 695], for which the melting point lay within 101 to 103 °C. Moreover, the pKi at human H3 receptor was over 6.70. Besides, in data set [1], the pKi is over 6.70.
In turn, `OC(c1ccc2c(c1)COC1(CCN(C3CCC3)CC1)O2)c1cscn1` (stereo not drawn) [Example 697] gave a melting point of 63 to 68 °C. Further, the pKi at human H3 receptor was over 6.70. Moreover, the pKi in data set [1] was over 6.70.
Consider `COc1cc(C(=O)O)ccc1-c1ccc2c(c1)COC1(CCN(C3CCC3)CC1)O2` [Example 699], for which the melting point lay within 282 to 284 °C. Further, the pKi on human H3 receptor is over 6.70. Besides, in data set [1], the pKi is over 6.70.
`NC(=O)COc1ccc2c(c1)CCC1(CCN(C3CCC3)CC1)O2` [Example 700] had a melting point of 121 to 125 °C. Moreover, the pKi on human H3 receptor is over 6.70. In addition, in data set [1], the pKi is over 6.70.
The compound `c1c[nH]c(-c2ccc3c(c2)COC2(CCN(C4CCC4)CC2)O3)c1` [Example 702] came in with a melting point of 179 to 180 °C. Besides, the pKi on human H3 receptor is over 6.70. Further, the pKi in data set [1] was over 6.70.
In turn, `O=c1ccc(-c2ccc3c(c2)COC2(CCN(CCC4CCOCC4)CC2)O3)c[nH]1` [Example 703] displayed a melting point of 214 to 216 °C. Further, at human H3 receptor, the pKi was 6.00 to 6.70. Further, the pKi in data set [1] was under 6.00.
The matching figures for `CNC(=O)c1ccc(-c2ccc3c(c2)COC2(CCN(C4CCC4)CC2)O3)cc1O` [Example 704]: 252 to 254 °C, over 6.70 and over 6.70.
The corresponding values for `O=C(NC1CCOCC1)c1ccc(-c2ccc3c(c2)COC2(CCN(C4CCC4)CC2)O3)cc1O` [Example 705] are 193 to 195 °C, over 6.70 and over 6.70.
The matching figures for `Cc1nnc(C2CCC(c3ccc4c(c3)COC3(CCN(C5CCC5)CC3)O4)CC2)o1` (stereo not drawn) [Example 707]: 62.4 to 64.7 °C, over 6.70 and over 6.70.
For the compound `COCCn1cc(-c2ccc3c(c2)COC2(CCN(C4CCC4)CC2)O3)ccc1=O` [Example 708], the melting point lay in the range of 141 to 142 °C. The pKi at human H3 receptor is over 6.70. Moreover, the pKi in data set [1] was over 6.70.
`Cc1cc(=O)n(C)cc1-c1ccc2c(c1)COC1(CCN(C3CCC3)CC1)O2` [Example 709] showed a melting point of 151 to 154 °C. For the same compound, the pKi on human H3 receptor is over 6.70. Further, the pKi in data set [1] was over 6.70.

The values are drawn from patent US8513232B2, “Substituted spirocyclic piperidine derivatives as histamine-3 (H3) receptor ligands” (Cephalon, Inc., priority 2008, dated 2013).
